# Results as given in paper PMC9967789, “Green Drug Discovery: Novel Fragment Space from the Biomass-Derived Molecule Dihydrolevoglucosenone (Cyrene^TM)” (Molecules, 2023).
# Legend:
# [1] = Nephelometry solubility in HBSS buffer containing 1% DMSO; format: physicochemical; settings: for concentration up to which no signs of precipitation or aggregation are shown: in triplo
# Procedure: Nephelometry was performed using NEPHELOstar Plus equipment (BMG LABTECH, Ortenberg, Germany). Kaolin was used as the internal standard, and compounds were added to HBSS buffer as DMSO stock solution to a final concentration of 1% DMSO and a total volume of 200 μL. Precipitation or aggregation was considered significant when average values exceeded three times the standard deviation of the blanks. Blank values were omitted if they exceeded three times the standard deviation of the 24 blanks that were measured on each 96-well plate. All compounds were tested in triplo, and wells of suspected outliers were visually inspected before omitting any outliers. Data were processed in Prism version 8.0 (GraphPad, San Diego, CA, USA).
# [2] = Incubation experiment: fragment integrity by 1H NMR in DMSO-d6; format: physicochemical; settings: 10^−2 M in DMSO-d6, NMR, three weeks at room temperature or frozen
# Procedure: (§1) LCMS studies: A 10 mM solution in DMSO was diluted with HBSS buffer to 0.10 mM. Fragment integrity was measured by LCMS at regular intervals (not shown) up to 20 d in the dark at rt, or after 20 d of freezing. NMR studies: A 10 mM solution in DMSO-d6 was prepared. Fragment integrity was measured with ^1H NMR analysis at regular intervals (not shown) up to 20 d in the dark at rt, or after 20 d of freezing.
# [3] = Incubation experiment: fragment integrity by LCMS in HBSS buffer/1% DMSO; format: physicochemical; settings: 10^−4 M in HBSS buffer/1% DMSO
# Procedure: as §1
# [4] = set-up: method as in doi:10.1021/acssuschemeng.6b02115; settings: cited from earlier work
# [5] = cited from earlier work
compound,measurement,setting,value
Cc1ccc(COC2CC[C@H]3CO[C@@H]2O3)cc1 (some centres unmarked) [Compound 5c],concentration up to which no signs of precipitation or aggregation are shown,[1],1000 µM
O=C(Nc1ccc(Cl)cc1)OC1CC[C@H]2CO[C@@H]1O2 (some centres unmarked) [Compound 7c],concentration at which the precipitate/aggregate starts to form,[1],10^−3 M
same,concentration up to which no signs of precipitation or aggregation are shown,[1],320 µM
Cn1ccc(CNC2CC[C@H]3CO[C@@H]2O3)n1.O=C(O)CCC(=O)O (some centres unmarked) [Compound 8f],concentration up to which no signs of precipitation or aggregation are shown,[1],3200 µM
Clc1cccc(Cl)c1CNC1CC[C@H]2CO[C@@H]1O2 (some centres unmarked) [Compound 8h],decomposition in DMSO,[2],no significant decomposition
same,byproduct formed,[3]; three weeks at room temperature,ca. 2.5%
COc1ccc(C(=O)NC2CC[C@H]3CO[C@@H]2O3)cc1 (some centres unmarked) [Compound 9h],decomposition in DMSO,[2],no significant decomposition
same,reactivity on incubation in buffer,[3]; three weeks at room temperature or frozen,no or only minor reactivity
O=C(NC1CC[C@H]2CO[C@@H]1O2)c1cccs1 (some centres unmarked) [Compound 9p],concentration up to which no signs of precipitation or aggregation are shown,[1],1000 µM
O=S(=O)(NC1CC[C@H]2CO[C@@H]1O2)C1CC1 (some centres unmarked) [Compound 12f],concentration up to which no signs of precipitation or aggregation are shown,[1],320 µM
"O=C1CC[C@H]2CO[C@@H]1O2 [Cyrene, dihydrolevoglucosenone]",toxicity,[4],low toxicity
same,water solubility,[5],highly water-soluble
C1COC2(CCC3COC2O3)O1 (centres unmarked) [glycol acetal of Cyrene],miscibility with water,[5],water-miscible
O=C1CC2COC(C1)O2 (centres unmarked) [iso-Cyrene],concentration of solutions obtained in water,[5]; water,10000 µM
